According to patent US12180187B2, “1-phenyl-5-azinylpyrazolyl-3-oxyalkyl acids and their use for controlling unwanted plant growth” (BAYER AKTIENGESELLSCHAFT, priority 2019, dated 2024):

Key:
[1] = system: AMARE; assay: Pre-emergence action at 320 g/ha against AMARE; type: in vivo, Amaranthus retroflexus; details: visual scoring after about 3 weeks vs untreated controls
Procedure, shortened: (§1)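 Greenhouse pot trial in which formulated compound (wettable powder or emulsion concentrate) goes onto the soil surface right after sowing, at a spray volume of 600 l/ha including 0.5% additive. Effects are judged visually after about 3 weeks (0% = like control, 100% = dead).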

[2] = system: SETVI; assay: Pre-emergence action at 320 g/ha against SETVI; type: in vivo, Setaria viridis; details: visual scoring after about 3 weeks vs untreated controls
Procedure, shortened: as §1

[3] = system: AVEFA; assay: Pre-emergence action at 320 g/ha against AVEFA; type: in vivo; details: visual scoring after about 3 weeks vs untreated controls
Excerpt: (§2) b) Seeds of monocotyledonous and dicotyledonous weed plants and crop plants are placed in plastic or organic planting pots and covered with soil. The compounds of the invention, formulated in the form of wettable powders (WP) or as emulsion concentrates (EC), are then applied onto the surface of the covering soil as aqueous suspension or emulsion with addition of 0.5% additive at a water application rate of 600 l/ha (converted). After the treatment, the pots are placed in a greenhouse and kept under good growth conditions for the trial plants. After about 3 weeks, the effect of the preparations is scored visually in comparison with untreated controls as percentages. For example, 100% activity=the plants have died, 0% activity=like control plants. Tables 13 to 26 below show the effects of selected compounds of the general formula (I) on various harmful plants and at an application rate corresponding to 320 g/ha, which were obtained by the experimental procedure mentioned above.

[4] = system: POLCO; assay: Pre-emergence action at 320 g/ha against POLCO; type: in vivo, Fallopia convolvulus (Polygonum convolvulus); details: visual scoring after about 3 weeks vs untreated controls
Procedure, shortened: as §1

[5] = system: LOLRI; assay: Pre-emergence action at 320 g/ha against LOLRI; type: in vivo, Lolium rigidum; details: visual scoring after about 3 weeks vs untreated controls
Excerpt: as §2

[6] = system: ECHGC; assay: Pre-emergence action at 320 g/ha against ECHGC; type: in vivo, Echinochloa crus-galli; details: visual scoring after about 3 weeks vs untreated controls
Excerpt: as §2

[7] = system: DIGSA; assay: Pre-emergence action at 320 g/ha against DIGSA; type: in vivo, Digitaria sanguinalis; details: visual scoring after about 3 weeks vs untreated controls
Excerpt: as §2

[8] = system: VIOTR; assay: Pre-emergence action at 320 g/ha against VIOTR; type: in vivo, Viola tricolor; details: dosage 320 g/ha
Procedure, shortened: as §1

[9] = system: MATIN; assay: Pre-emergence action at 320 g/ha against MATIN; type: in vivo, Tripleurospermum inodorum (Matricaria inodora); details: visual scoring after about 3 weeks vs untreated controls
Procedure, shortened: as §1

[10] = system: VERPE; assay: Pre-emergence action at 320 g/ha against VERPE; type: in vivo, Veronica persica; details: visual scoring after about 3 weeks vs untreated controls
Procedure, shortened: as §1

[11] = system: ALOMY; assay: Pre-emergence action at 320 g/ha against ALOMY; type: in vivo, Alopecurus myosuroides; details: scored visually after about 3 weeks vs untreated controls (100% = plants have died)
Procedure, shortened: as §1

[12] = system: ABUTH; assay: Post-emergence action against ABUTH, 1.28 kg/ha; type: in vivo, Abutilon theophrasti; details: dosage 1280 g/ha, visual rating about 3 weeks after treatment vs untreated controls (100% = plants died)
Procedure, shortened: (§3)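 Herbicidal action is estimated by eye after about three weeks under optimum greenhouse conditions, on a 0–100% scale against untreated plants. Compounds are applied post-emergence to one-leaf-stage weeds as aqueous WP or EC preparations containing 0.5% additive, sprayed at 600 L/ha.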

[13] = system: DIGSA; assay: Pre-emergence action against DIGSA, 1280 g/ha; type: in vivo, Digitaria sanguinalis; details: visual scoring after about 3 weeks vs untreated controls, 100% = plants have died, 0% = like control plants
Procedure, shortened: (§4)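 In greenhouse pots of sandy loam, sown weed seeds were covered with soil and treated pre-emergence with the compound in water (600 L/ha, 0.5% additive). Efficacy was assessed visually as percent of untreated control after about 3 weeks.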

[14] = system: VERPE; assay: Post-emergence action against VERPE, 1.28 kg/ha; type: in vivo, Veronica persica; details: dosage 1280 g/ha, visual rating about 3 weeks after treatment vs untreated controls (100% = plants died)
Procedure, shortened: as §3

[15] = system: SETVI; assay: Pre-emergence action against SETVI, 1280 g/ha; type: in vivo, Setaria viridis; details: visual scoring after about 3 weeks vs untreated controls, 100% = plants have died, 0% = like control plants
Procedure, shortened: as §4

[16] = system: MATIN; assay: Pre-emergence action against MATIN, 1280 g/ha; type: in vivo, Tripleurospermum inodorum (Matricaria inodora); details: scored visually after about 3 weeks vs untreated controls (100% = plants have died)
Procedure, shortened: as §4

[17] = system: DIGSA; assay: Post-emergence action against DIGSA, 1.28 kg/ha; type: in vivo, Digitaria sanguinalis; details: dosage 1280 g/ha, visual rating about 3 weeks after treatment vs untreated controls
Procedure, shortened: as §3

[18] = system: KCHSC; assay: Post-emergence action against KCHSC, 1.28 kg/ha; type: in vivo, Bassia scoparia; details: dosage 1280 g/ha, visual rating about 3 weeks after treatment vs untreated controls (100% = plants died)
Description: • a) Seeds of mono- and dicotyledonous weed plants are placed in plastic pots in sandy loam soil (twin sowing with one species each of mono- or dicotyledonous weed plants per pot), covered with soil and cultivated in a greenhouse under controlled growth conditions. 2 to 3 weeks after sowing, the test plants are treated at the one-leaf stage. The compounds of the invention, formulated in the form of wettable powders (WP) or as emulsion concentrates (EC), are applied to the green parts of the plants as aqueous suspension or emulsion with addition of 0.5% additive at a water application rate equivalent to 600 litres per hectare. After the test plants have been kept in the greenhouse under optimum growth conditions for about 3 weeks, the activity of the preparations is rated visually in comparison to untreated controls. For example, 100% activity=the plants have died, 0% activity=like control plants. As shown by the results, compounds of the general formula (I) of the invention, in post-emergence treatment, have very good herbicidal efficacy (90% to 100% herbicidal action) against harmful plants such as Abutilon theophrasti, Digitaria sanguinalis, Echinochloa crus-galli, Matricaria inodora, Poa annua, at an application rate of 1.28 kg of active substance per hectare.

[19] = system: STEME; assay: Post-emergence action against STEME, 1.28 kg/ha; type: in vivo, Stellaria media; details: dosage 1280 g/ha, visual rating about 3 weeks after treatment vs untreated controls (100% = plants died)
Procedure, shortened: as §3

[20] = system: MATIN; assay: Post-emergence action against MATIN, 1.28 kg/ha; type: in vivo, Tripleurospermum inodorum (Matricaria inodora); details: dosage 1280 g/ha, visual rating about 3 weeks after treatment vs untreated controls (100% = plants died)
Procedure, shortened: as §3

[21] = system: AMARE; assay: Pre-emergence action against AMARE, 1280 g/ha; type: in vivo, Amaranthus retroflexus; details: scored visually after about 3 weeks vs untreated controls (100% = plants have died)
Procedure, shortened: as §4

[22] = system: VERPE; assay: Pre-emergence action against VERPE, 1280 g/ha; type: in vivo, Veronica persica; details: scored visually after about 3 weeks vs untreated controls (100% = plants have died)
Procedure, shortened: as §4

[23] = system: ALOMY; assay: Post-emergence action against ALOMY, 1.28 kg/ha; type: in vivo, Alopecurus myosuroides; details: dosage 1280 g/ha, visual rating about 3 weeks after treatment vs untreated controls
Procedure, shortened: as §3

[24] = system: POAAN; assay: Pre-emergence action against POAAN, 1280 g/ha; type: in vivo, Poa annua; details: visual scoring after about 3 weeks vs untreated controls, 100% = plants have died, 0% = like control plants
Procedure, shortened: as §4

[25] = system: LOLRI; assay: Pre-emergence action against LOLRI, 1280 g/ha; type: in vivo, Lolium rigidum; details: visual scoring after about 3 weeks vs untreated controls, 100% = plants have died, 0% = like control plants
Procedure, shortened: as §4

[26] = system: STEME; assay: Pre-emergence action against STEME, 1280 g/ha; type: in vivo, Stellaria media; details: scored visually after about 3 weeks vs untreated controls (100% = plants have died)
Procedure, shortened: as §4

[27] = system: ALOMY; assay: Pre-emergence action against ALOMY, 1280 g/ha; type: in vivo, Alopecurus myosuroides; details: visual scoring after about 3 weeks vs untreated controls, 100% = plants have died, 0% = like control plants
Procedure, shortened: as §4

[28] = system: ECHCG; assay: Pre-emergence action against ECHCG, 1280 g/ha; type: in vivo, Echinochloa crus-galli; details: visual scoring after about 3 weeks vs untreated controls, 100% = plants have died, 0% = like control plants
Procedure, shortened: as §4

[29] = system: POAAN; assay: Post-emergence action against POAAN, 1.28 kg/ha; type: in vivo, Poa annua; details: dosage 1280 g/ha, visual rating about 3 weeks after treatment vs untreated controls
Procedure, shortened: as §3

[30] = system: AMARE; assay: Post-emergence action against AMARE, 1.28 kg/ha; type: in vivo, Amaranthus retroflexus; details: dosage 1280 g/ha, visual rating about 3 weeks after treatment vs untreated controls (100% = plants died)
Procedure, shortened: as §3

O=C(O)C(F)Oc1nn(-c2ccccc2F)c(-c2ccc(F)nc2)c1Br (stereo not drawn) [VII-057-a]
100%: Pre-emergence action against AMARE in % [1] | Pre-emergence action against SETVI in % [2] | Pre-emergence action against DIGSA in % [7] | Pre-emergence action against VIOTR in % [8]
90%: Pre-emergence action against LOLRI in % [5] | Pre-emergence action against MATIN in % [9]
80%: Pre-emergence action against AVEFA in % [3] | Pre-emergence action against POLCO in % [4] | Pre-emergence action against ECHGC in % [6]

COC(=O)C(C)Oc1nn(-c2ccccc2F)c(-c2ccc(F)nc2)c1Br (stereo not drawn) [VII-060]
90%: Pre-emergence action against SETVI in % [2] | Pre-emergence action against AVEFA in % [3] | Pre-emergence action against POLCO in % [4] | Pre-emergence action against ECHGC in % [6] | Pre-emergence action against MATIN in % [9]
100%: Pre-emergence action against AMARE in % [1] | Pre-emergence action against VERPE in % [10] | Pre-emergence action at 320 g/ha against ALOMY in % [11] | Pre-emergence action against LOLRI in % [5] | Pre-emergence action against DIGSA in % [7] | Pre-emergence action against VIOTR in % [8]

O=C(O)COc1nn(-c2ccc(F)cc2)c(-c2ccc(F)nc2)c1I [VII-069]
90%: Post-emergence action against ABUTH [12] | Pre-emergence action against MATIN [16] | Post-emergence action against KCHSC [18] | Post-emergence action against STEME [19] | Post-emergence action against MATIN [20] | Pre-emergence action against LOLRI [25]
100%: Pre-emergence action against DIGSA [13] | Post-emergence action against VERPE [14] | Pre-emergence action against SETVI [15] | Post-emergence action against DIGSA [17] | Pre-emergence action against AMARE [21] | Pre-emergence action against VERPE [22] | Post-emergence action against ALOMY [23] | Pre-emergence action against POAAN [24] | Pre-emergence action against STEME [26]

CCOC(=O)COc1nn(-c2ccc(F)cc2)c(-c2ccc(F)nc2)c1I [VII-102]
100%: Pre-emergence action against DIGSA [13] | Post-emergence action against VERPE [14] | Pre-emergence action against SETVI [15] | Pre-emergence action against ECHCG [28] | Post-emergence action against POAAN [29] | Post-emergence action against AMARE [30] | Post-emergence action against MATIN [20] | Pre-emergence action against VERPE [22] | Post-emergence action against ALOMY [23] | Pre-emergence action against POAAN [24] | Pre-emergence action against LOLRI [25]
90%: Pre-emergence action against ALOMY [27] | Pre-emergence action against MATIN [16] | Post-emergence action against KCHSC [18] | Pre-emergence action against AMARE [21] | Pre-emergence action against STEME [26]
